According to PMC8401933 (Molecules, 2021):

Assays:
Assay in all cases: KINOMEscan binding
BMPR2 = biological target: T1, BMPR2 (Homo sapiens, UniProt Q13873); settings: read-out: Percent Control
T1 construct: purchased Eurofins DiscoverX KINOMEscan

RET(M918T) = biological target: T2, RET(M918T) (Homo sapiens, UniProt P07949, M918T); settings: read-out: Percent Control
T2 construct: purchased Eurofins DiscoverX KINOMEscan

PIK3CA(Q546K) = biological target: T3, PIK3CA(Q546K) (Homo sapiens, UniProt P42336, Q546K); settings: read-out: Percent Control
T3 construct: purchased Eurofins DiscoverX KINOMEscan

GRK3 = biological target: T4, GRK3 (Homo sapiens, UniProt P35626); settings: read-out: Percent Control
T4 construct: purchased Eurofins DiscoverX KINOMEscan

TIE1 = biological target: T5, TIE1 (Homo sapiens, UniProt P35590); settings: read-out: Percent Control
T5 construct: purchased Eurofins DiscoverX KINOMEscan
T5 sequence (P35590 22-1138): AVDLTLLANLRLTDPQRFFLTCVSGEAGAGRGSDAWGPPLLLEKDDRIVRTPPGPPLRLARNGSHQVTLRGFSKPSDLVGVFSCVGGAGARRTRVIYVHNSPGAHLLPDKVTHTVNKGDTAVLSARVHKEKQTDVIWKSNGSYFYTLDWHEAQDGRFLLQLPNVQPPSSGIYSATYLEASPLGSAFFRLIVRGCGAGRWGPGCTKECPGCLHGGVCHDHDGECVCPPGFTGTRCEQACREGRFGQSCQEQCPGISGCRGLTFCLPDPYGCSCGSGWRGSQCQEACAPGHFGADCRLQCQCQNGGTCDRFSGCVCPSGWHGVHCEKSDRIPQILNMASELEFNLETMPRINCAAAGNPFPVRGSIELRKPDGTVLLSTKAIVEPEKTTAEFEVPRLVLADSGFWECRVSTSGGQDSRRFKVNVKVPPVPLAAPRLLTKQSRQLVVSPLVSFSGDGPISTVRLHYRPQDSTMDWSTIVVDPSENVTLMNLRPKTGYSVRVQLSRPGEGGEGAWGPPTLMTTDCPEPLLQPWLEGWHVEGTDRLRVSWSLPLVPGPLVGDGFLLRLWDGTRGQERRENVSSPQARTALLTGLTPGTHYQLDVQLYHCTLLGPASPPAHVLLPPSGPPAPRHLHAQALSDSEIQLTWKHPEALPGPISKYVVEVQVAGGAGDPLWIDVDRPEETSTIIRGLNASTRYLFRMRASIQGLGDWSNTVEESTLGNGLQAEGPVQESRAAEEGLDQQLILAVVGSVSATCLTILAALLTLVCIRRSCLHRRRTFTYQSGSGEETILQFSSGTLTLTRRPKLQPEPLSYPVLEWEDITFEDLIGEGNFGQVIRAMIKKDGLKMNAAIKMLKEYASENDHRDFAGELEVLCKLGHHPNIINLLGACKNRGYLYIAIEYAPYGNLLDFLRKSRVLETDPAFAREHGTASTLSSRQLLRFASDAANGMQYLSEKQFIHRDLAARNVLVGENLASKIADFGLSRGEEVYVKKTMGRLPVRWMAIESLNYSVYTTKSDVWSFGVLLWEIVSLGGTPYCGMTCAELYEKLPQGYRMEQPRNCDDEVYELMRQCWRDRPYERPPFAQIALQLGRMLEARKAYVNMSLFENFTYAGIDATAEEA

AAK1 = biological target: T6, AAK1 (Homo sapiens, UniProt Q2M2I8); settings: read-out: Percent Control
T6 construct: purchased Eurofins DiscoverX KINOMEscan

TLK1 = biological target: T7, TLK1 (Homo sapiens, UniProt Q9UKI8); settings: read-out: Percent Control
T7 construct: purchased Eurofins DiscoverX KINOMEscan

PDGFRB = biological target: T8, PDGFRB (Homo sapiens, UniProt P09619); settings: read-out: Percent Control
T8 construct: purchased Eurofins DiscoverX KINOMEscan

MST1R = biological target: T9, MST1R (Homo sapiens, UniProt Q04912); settings: read-out: Percent Control
T9 construct: purchased Eurofins DiscoverX KINOMEscan

EIF2AK1 = biological target: T10, EIF2AK1 (Homo sapiens, UniProt Q9BQI3); settings: read-out: Percent Control
T10 construct: purchased Eurofins DiscoverX KINOMEscan

RET = biological target: T11, RET (Homo sapiens, UniProt P07949); settings: read-out: Percent Control
T11 construct: purchased Eurofins DiscoverX KINOMEscan

[1] = biological target: T12, RSK3(Kin.Dom.2-C-terminal) (Homo sapiens, UniProt Q15349); settings: read-out: Percent Control
T12 construct: RSK3(Kin.Dom.2-C-terminal); purchased Eurofins DiscoverX KINOMEscan
T12 sequence (Q15349 389-733 limits assumed): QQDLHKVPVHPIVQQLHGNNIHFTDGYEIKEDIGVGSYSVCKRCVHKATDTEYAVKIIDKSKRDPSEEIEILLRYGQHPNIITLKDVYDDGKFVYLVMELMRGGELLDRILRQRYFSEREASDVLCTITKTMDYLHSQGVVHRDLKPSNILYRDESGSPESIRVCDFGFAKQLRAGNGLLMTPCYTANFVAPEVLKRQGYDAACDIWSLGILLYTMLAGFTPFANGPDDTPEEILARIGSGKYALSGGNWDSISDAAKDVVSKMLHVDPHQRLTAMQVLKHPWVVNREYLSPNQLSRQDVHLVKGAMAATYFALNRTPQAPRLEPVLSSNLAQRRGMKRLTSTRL

[2] = biological target: T13, TYK2(JH2domain-pseudokinase) (Homo sapiens, UniProt P29597); settings: read-out: Percent Control
T13 construct: TYK2(JH2domain-pseudokinase); purchased Eurofins DiscoverX KINOMEscan
T13 sequence (P29597 556-888 limits assumed): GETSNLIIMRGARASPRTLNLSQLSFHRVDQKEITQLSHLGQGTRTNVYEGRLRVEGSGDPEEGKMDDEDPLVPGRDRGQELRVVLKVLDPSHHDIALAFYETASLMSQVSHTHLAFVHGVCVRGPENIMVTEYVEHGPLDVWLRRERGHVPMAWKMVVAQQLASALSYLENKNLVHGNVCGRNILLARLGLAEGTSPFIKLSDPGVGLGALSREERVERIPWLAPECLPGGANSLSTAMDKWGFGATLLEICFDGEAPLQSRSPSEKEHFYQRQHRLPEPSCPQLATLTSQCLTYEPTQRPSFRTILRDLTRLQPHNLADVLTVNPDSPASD

ASK2 = biological target: T14, ASK2 (Homo sapiens, UniProt O95382); settings: read-out: Percent Control
T14 construct: purchased Eurofins DiscoverX KINOMEscan

FLT3(ITD,F691L) = system: FLT3(ITD,F691L); parameters: species or system human; settings: 10 μM
PIKFYVE = biological target: T15, PIKFYVE (Homo sapiens, UniProt Q9Y2I7); settings: read-out: Percent Control
T15 construct: purchased Eurofins DiscoverX KINOMEscan
T15 sequence (Q9Y2I7 whole entry): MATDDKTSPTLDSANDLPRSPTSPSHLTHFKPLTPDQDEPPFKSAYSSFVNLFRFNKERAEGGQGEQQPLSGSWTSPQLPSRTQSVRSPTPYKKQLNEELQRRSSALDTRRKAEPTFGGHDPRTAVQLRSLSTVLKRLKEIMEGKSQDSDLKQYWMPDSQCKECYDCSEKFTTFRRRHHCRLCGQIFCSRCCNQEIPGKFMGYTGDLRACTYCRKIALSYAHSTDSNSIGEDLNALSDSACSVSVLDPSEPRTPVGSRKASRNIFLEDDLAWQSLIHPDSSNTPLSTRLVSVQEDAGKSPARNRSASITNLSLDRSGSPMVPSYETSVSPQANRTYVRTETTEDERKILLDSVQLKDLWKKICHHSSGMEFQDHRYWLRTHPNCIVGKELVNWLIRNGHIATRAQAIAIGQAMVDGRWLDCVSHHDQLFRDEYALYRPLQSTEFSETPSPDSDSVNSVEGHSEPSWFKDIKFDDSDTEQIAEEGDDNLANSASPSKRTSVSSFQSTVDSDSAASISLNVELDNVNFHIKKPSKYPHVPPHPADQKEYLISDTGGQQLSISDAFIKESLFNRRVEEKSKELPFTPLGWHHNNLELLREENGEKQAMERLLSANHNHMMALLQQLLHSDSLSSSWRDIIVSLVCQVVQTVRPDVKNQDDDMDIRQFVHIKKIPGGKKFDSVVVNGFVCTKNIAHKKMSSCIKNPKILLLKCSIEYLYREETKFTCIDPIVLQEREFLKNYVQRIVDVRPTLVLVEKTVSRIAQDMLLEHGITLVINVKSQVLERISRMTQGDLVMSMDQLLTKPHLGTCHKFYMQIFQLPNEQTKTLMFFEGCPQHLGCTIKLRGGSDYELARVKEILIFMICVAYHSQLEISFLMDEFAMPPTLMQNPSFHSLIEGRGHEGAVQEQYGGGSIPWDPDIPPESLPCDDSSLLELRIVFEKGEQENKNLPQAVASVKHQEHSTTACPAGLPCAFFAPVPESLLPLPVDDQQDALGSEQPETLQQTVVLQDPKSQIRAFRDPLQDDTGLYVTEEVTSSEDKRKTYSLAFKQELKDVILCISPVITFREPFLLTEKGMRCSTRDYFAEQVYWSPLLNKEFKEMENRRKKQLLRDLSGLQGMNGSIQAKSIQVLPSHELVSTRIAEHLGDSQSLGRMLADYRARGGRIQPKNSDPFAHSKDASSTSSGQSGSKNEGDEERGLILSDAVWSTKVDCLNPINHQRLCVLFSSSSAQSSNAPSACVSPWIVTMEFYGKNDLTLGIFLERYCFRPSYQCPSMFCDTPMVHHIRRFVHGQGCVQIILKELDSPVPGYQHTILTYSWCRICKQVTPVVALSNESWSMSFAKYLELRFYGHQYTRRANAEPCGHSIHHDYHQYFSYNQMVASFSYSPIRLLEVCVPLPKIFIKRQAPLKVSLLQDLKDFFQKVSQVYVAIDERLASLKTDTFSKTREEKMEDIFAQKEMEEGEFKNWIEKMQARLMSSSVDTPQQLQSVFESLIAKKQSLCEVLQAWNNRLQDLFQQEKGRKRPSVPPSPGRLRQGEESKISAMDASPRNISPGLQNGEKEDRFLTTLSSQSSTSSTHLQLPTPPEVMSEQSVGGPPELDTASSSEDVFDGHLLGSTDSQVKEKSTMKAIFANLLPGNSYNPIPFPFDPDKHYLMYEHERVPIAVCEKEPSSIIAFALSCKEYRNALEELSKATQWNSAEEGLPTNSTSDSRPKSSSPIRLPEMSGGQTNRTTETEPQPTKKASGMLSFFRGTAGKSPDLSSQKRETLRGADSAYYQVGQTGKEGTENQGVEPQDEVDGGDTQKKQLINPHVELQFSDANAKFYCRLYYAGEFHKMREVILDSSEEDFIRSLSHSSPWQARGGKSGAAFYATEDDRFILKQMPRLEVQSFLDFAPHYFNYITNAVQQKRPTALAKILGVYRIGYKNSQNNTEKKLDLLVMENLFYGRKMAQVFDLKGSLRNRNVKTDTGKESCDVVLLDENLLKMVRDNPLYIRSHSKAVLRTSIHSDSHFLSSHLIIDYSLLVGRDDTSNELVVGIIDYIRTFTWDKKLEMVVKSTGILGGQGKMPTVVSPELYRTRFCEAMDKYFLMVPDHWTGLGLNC

TGFBR1 = biological target: T16, TGFBR1 (Homo sapiens, UniProt P36897); settings: read-out: Percent Control
T16 construct: purchased Eurofins DiscoverX KINOMEscan
T16 sequence (P36897 34-503): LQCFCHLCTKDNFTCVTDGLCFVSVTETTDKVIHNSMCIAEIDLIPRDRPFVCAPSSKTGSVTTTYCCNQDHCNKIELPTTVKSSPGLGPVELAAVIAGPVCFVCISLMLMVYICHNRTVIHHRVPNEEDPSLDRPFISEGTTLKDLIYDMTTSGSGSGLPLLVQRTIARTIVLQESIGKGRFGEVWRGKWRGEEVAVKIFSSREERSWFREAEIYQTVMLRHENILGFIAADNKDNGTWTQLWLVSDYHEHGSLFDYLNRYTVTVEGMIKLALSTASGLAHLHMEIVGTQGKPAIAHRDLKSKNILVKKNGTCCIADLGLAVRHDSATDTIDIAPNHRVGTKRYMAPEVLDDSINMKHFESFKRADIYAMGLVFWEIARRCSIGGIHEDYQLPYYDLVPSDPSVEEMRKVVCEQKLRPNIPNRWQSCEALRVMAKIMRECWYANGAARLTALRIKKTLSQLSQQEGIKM

[3] = biological target: T17, ABL1(T315I)-phosphorylated (Homo sapiens, UniProt P00519, T315I); settings: read-out: Percent Control
T17 construct: purchased Eurofins DiscoverX KINOMEscan

MAP4K2 = biological target: T18, MAP4K2 (Homo sapiens, UniProt Q12851); settings: read-out: Percent Control
T18 construct: purchased Eurofins DiscoverX KINOMEscan

NEK2 = biological target: T19, NEK2 (Homo sapiens, UniProt P51955); settings: read-out: Percent Control
T19 construct: purchased Eurofins DiscoverX KINOMEscan

PIK3CA(E542K) = biological target: T20, PIK3CA(E542K) (Homo sapiens, UniProt P42336, E542K); settings: read-out: Percent Control
T20 construct: purchased Eurofins DiscoverX KINOMEscan

PAK6 = biological target: T21, PAK6 (Homo sapiens, UniProt Q9NQU5); settings: read-out: Percent Control
T21 construct: purchased Eurofins DiscoverX KINOMEscan

DYRK1B = biological target: T22, DYRK1B (Homo sapiens, UniProt Q9Y463); settings: read-out: Percent Control
T22 construct: purchased Eurofins DiscoverX KINOMEscan

PRKCD = biological target: T23, PRKCD (Homo sapiens, UniProt Q05655); settings: read-out: Percent Control
T23 construct: purchased Eurofins DiscoverX KINOMEscan
T23 sequence (Q05655 whole entry): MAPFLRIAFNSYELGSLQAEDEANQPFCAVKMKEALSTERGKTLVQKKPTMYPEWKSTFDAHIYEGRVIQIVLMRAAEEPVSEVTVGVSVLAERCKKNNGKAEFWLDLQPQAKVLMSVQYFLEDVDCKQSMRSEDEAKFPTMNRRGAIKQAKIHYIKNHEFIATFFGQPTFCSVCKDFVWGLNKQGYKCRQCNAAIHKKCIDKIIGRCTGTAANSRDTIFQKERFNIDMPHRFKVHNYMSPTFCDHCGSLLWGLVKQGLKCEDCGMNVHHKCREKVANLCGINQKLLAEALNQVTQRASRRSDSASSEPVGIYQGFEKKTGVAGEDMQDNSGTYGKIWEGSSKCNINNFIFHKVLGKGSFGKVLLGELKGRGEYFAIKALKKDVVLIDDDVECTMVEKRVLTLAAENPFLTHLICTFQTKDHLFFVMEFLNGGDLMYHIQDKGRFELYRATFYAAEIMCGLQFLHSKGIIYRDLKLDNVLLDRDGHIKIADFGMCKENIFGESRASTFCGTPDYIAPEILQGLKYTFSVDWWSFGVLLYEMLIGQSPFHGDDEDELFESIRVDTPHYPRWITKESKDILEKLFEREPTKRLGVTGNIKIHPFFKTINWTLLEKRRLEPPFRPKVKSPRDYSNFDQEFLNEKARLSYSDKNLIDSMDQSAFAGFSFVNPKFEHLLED

CLK4 = biological target: T24, CLK4 (Homo sapiens, UniProt Q9HAZ1); settings: read-out: Percent Control
T24 construct: purchased Eurofins DiscoverX KINOMEscan

MARK2 = biological target: T25, MARK2 (Homo sapiens, UniProt Q7KZI7); settings: read-out: Percent Control
T25 construct: purchased Eurofins DiscoverX KINOMEscan

AXL = biological target: T26, AXL (Homo sapiens, UniProt P30530); settings: read-out: Percent Control
T26 construct: purchased Eurofins DiscoverX KINOMEscan

NEK4 = biological target: T27, NEK4 (Homo sapiens, UniProt P51957); settings: read-out: Percent Control
T27 construct: purchased Eurofins DiscoverX KINOMEscan

MARK4 = biological target: T28, MARK4 (Homo sapiens, UniProt Q96L34); settings: read-out: Percent Control
T28 construct: purchased Eurofins DiscoverX KINOMEscan

JNK1 = biological target: T29, JNK1 (Homo sapiens, UniProt P45983); settings: read-out: Percent Control
T29 construct: purchased Eurofins DiscoverX KINOMEscan

RIOK3 = biological target: T30, RIOK3 (Homo sapiens, UniProt O14730); settings: read-out: Percent Control
T30 construct: purchased Eurofins DiscoverX KINOMEscan

FLT3(R834Q) = biological target: T31, FLT3(R834Q) (Homo sapiens, UniProt P36888, R834Q); settings: read-out: Percent Control
T31 construct: purchased Eurofins DiscoverX KINOMEscan

HASPIN = biological target: T32, HASPIN (Homo sapiens, UniProt Q8TF76); settings: read-out: Percent Control
T32 construct: purchased Eurofins DiscoverX KINOMEscan

PRKCQ = biological target: T33, PRKCQ (Homo sapiens, UniProt Q04759); settings: read-out: Percent Control
T33 construct: purchased Eurofins DiscoverX KINOMEscan

MAP3K15 = biological target: T34, MAP3K15 (Homo sapiens, UniProt Q6ZN16); settings: read-out: Percent Control
T34 construct: purchased Eurofins DiscoverX KINOMEscan

[4] = biological target: T35, JAK3(JH1domain-catalytic) (Homo sapiens, UniProt P52333); settings: read-out: Percent Control
T35 construct: JAK3(JH1domain-catalytic); purchased Eurofins DiscoverX KINOMEscan

CC(C)NC(=O)COc1cccc(-c2nc(Nc3ccc4[nH]ncc4c3)c3ccccc3n2)c1 [KD025, 2-(3-(4-((1H-indazol-5-yl)amino)quinazolin-2-yl)phenoxy)-N-isopropylacetamide]
remaining binding at 10 µM (BMPR2): 72%
remaining binding at 10 µM (RET(M918T)): 66%
remaining binding at 10 µM (PIK3CA(Q546K)): 84%
remaining binding at 10 µM (GRK3): 84%
remaining binding at 10 µM (TIE1): 63%
remaining binding at 10 µM (AAK1): 29%
remaining binding at 10 µM (TLK1): 100%
remaining binding at 10 µM (PDGFRB): 76%
remaining binding at 10 µM (MST1R): 71%
remaining binding at 10 µM (EIF2AK1): 77%
remaining binding at 10 µM (RET): 88%
remaining binding at 10 µM [1]: 89%
remaining binding at 10 µM [2]: 81%
remaining binding at 10 µM (ASK2): 95%
Percent Control (FLT3(ITD,F691L)): 52%
remaining binding at 10 µM (PIKFYVE): 12%
remaining binding at 10 µM (TGFBR1): 59%
remaining binding at 10 µM [3]: 93%
remaining binding at 10 µM (MAP4K2): 80%
remaining binding at 10 µM (NEK2): 83%
remaining binding at 10 µM (PIK3CA(E542K)): 78%
remaining binding at 10 µM (PAK6): 100%
remaining binding at 10 µM (DYRK1B): 64%
remaining binding at 10 µM (PRKCD): 70%
remaining binding at 10 µM (CLK4): 77%
remaining binding at 10 µM (MARK2): 71%
remaining binding at 10 µM (AXL): 66%
remaining binding at 10 µM (NEK4): 87%
remaining binding at 10 µM (MARK4): 66%
remaining binding at 10 µM (JNK1): 70%
remaining binding at 10 µM (RIOK3): 6.7%
remaining binding at 10 µM (FLT3(R834Q)): 69%
remaining binding at 10 µM (HASPIN): 77%
remaining binding at 10 µM (PRKCQ): 41%
remaining binding at 10 µM (MAP3K15): 82%
remaining binding at 10 µM [4]: 94%
